In patent publication US12291517B2, “Crystalline form of 6-(cyclopropanecarboxamido)-4-((2-methoxy-3-(1-methyl-1H-1,2,4-triazol-3-yl)phenyl)amino)-n-(methyl-D3) pyridazine-3-carboxamide” (Bristol-Myers Squibb Company, priority 2018, dated 2025):
Where two headings read alike, the source gives them in different places.

Columns and labels:
[1] = Dog PK study, pH effect of free base vs. HCl salt; format: in vivo; conditions: capsule, 10 mg (1 mpk), Penta
[2] = Micro-dissolution comparative study of potential salts (pH transfer model); format: physicochemical; set-up: AUC pH 2-6.5 Mean / AUC pH 6-6.5 Mean: unit not given beside the values; conditions: for pH-effect Ratio: AUC pH 6-6.5 over AUC pH 2-6.5
[3] = Dog PK study, pH effect of free base vs. HCl salt; format: in vivo; conditions: for BA Mean / Cmax / Tmax / AUC(0-t): dog, capsule, 10 mg (1 mpk), famotidine treated (Famo); for Cmax / Tmax / AUC(0-t): in vivo, po, 1 mg/kg; for AUC(0-t): read-out: AUC0-24 h Mean
Description: In famotidine treated dogs, the mean bioavailability of the HCl salt is 60% higher than the free base.

[4] = Moisture sorption isotherm; format: physicochemical
Description: Moisture sorption isotherms were collected in a TA Instrument VTI-SA+Vapor Sorption Analyzer using approximately 10 mg of sample. The sample was dried at 60° C. until the loss rate of 0.0005 wt %/min was obtained for 10 minutes. The sample was tested at 25° C. and 3 or 4, 5, 15, 25, 35, 45, 50, 65, 75, 85, and 95% RH. Equilibration at each RH was reached when the rate of 0.0003 wt %/min for 35 minutes was achieved or a maximum of 600 minutes.

[5] = Physical and chemical stability of Form B on storage at different temperature and humidity; format: physicochemical
[6] = as above; format: physicochemical; remark: listed apart in the source
Description: Samples of Form B of Compound (I) were stored at different conditions of temperature and humidity for 4 weeks. The physical stability, characterized by DSC, TGA, and PXRD, were measured at 2 and 4 weeks.

For `[2H]C([2H])([2H])NC(=O)c1nnc(NC(=O)C2CC2)cc1Nc1cccc(-c2ncn(C)n2)c1OC` [Compound (I), 6-(cyclopropanecarboxamido)-4-((2-methoxy-3-(1-methyl-1H-1,2,4-triazol-3-yl)phenyl)amino)-N-(methyl-d3)pyridazine-3-carboxamide], the “BA Mean” value [1] was 100.00%, the Cmax ([1]; in vivo, po, 1 mg/kg) was 122 ng/mL and the Tmax ([1]; in vivo, po, 1 mg/kg) was 2.5 h. The AUC(0-t) ([1]; in vivo, po, 1 mg/kg, read-out: AUC0-24 h Mean) was 975 ng·h/mL, the “pH-effect Ratio” value [2] was 0.27 and the “AUC pH 2-6.5 Mean” value [2] was 6094.11. The “AUC pH 6-6.5 Mean” value [2] was 1640.60, the “BA Mean” value [3] was 85.44% and the Cmax [3] was 62.8 ng/mL. For the same compound, the Tmax [3] was 3.5 h and the AUC(0-t) [3] was 586 ng·h/mL.

For `Cl.[2H]C([2H])([2H])NC(=O)c1nnc(NC(=O)C2CC2)cc1Nc1cccc(-c2ncn(C)n2)c1OC` [Form B of Compound (I), 6-(cyclopropanecarboxamido)-4-((2-methoxy-3-(1-methyl-1H-1,2,4-triazol-3-yl)phenyl)amino)-N-(methyl-d3)pyridazine-3-carboxamide HCl salt], the Hygroscopicity [4] was “non-hygroscopic”, the Moisture uptake ([4]; between 25 to 75% relative humidity at 25° C.) was “less than 0.5%” and the “pH-effect Ratio” value [2] was 0.61. For the same compound, the “Mitigation of the pH effect” value ([2]; comparison of salts) was “mitigates the pH effect better than MSA and sulfate (SO4) salts”, the “AUC pH 2-6.5 Mean” value [2] was 12345.28 and the “AUC pH 6-6.5 Mean” value [2] was 7492.66. For the same compound, the “BA Mean” value [3] was 160.90%, the Cmax [3] was 180 ng/mL and the Tmax [3] was 2 h. The AUC(0-t) [3] was 1340 ng·h/mL, the “Mean bioavailability higher than the free base” value ([3]; famotidine treated dogs, 1 mpk) was 60% and the “% Assay” value ([5]; 5° C., 1 Month, corrected for water and total volatiles) was 100.3%. The “% Assay” value ([5]; 5° C., 2 weeks) was 98.31%, the “% Assay” value ([5]; 5° C., 3 Months, corrected for water and total volatiles) was 100.9% and the “% Assay” value ([5]; 5° C., 4 weeks) was 98.40%. For the same compound, the “% Assay” value ([5]; 5° C., 6 Months, corrected for water and total volatiles) was 100.3%, the “% Assay” value ([5]; 5° C., 12 Months, corrected for water and total volatiles) was 100.2% and the “% Assay” value ([5]; 25° C./60% RH (closed), 1 Month, corrected for water and total volatiles) was 98.8%. For the same compound, the “% Assay” value ([5]; 25° C./60% RH (closed), 3 Months, corrected for water and total volatiles) was 100.9%, the “% Assay” value ([5]; 25° C./60% RH (closed), 4 weeks) was 98.39% and the “% Assay” value ([5]; 25° C./60% RH (closed), 6 Months, corrected for water and total volatiles) was 99.4%. For the same compound, the “% Assay” value ([5]; 25° C./60% RH (closed), 12 Months, corrected for water and total volatiles) was 99.9%, the “% Assay” value ([5]; 40° C./75% RH (open), 1 Month, corrected for water and total volatiles) was 99.8% and the “% Assay” value ([5]; 40° C./75% RH (open), 2 weeks) was 98.29%. For the same compound, the “% Assay” value ([5]; 40° C./75% RH (open), 3 Months, corrected for water and total volatiles) was 98.7%, the “% Assay” value ([5]; 40° C./75% RH (open), 6 Months, corrected for water and total volatiles) was 101.0% and the “% Assay” value ([5]; 40° C./75% RH (open), 12 Months, corrected for water and total volatiles) was 100.3%. The “% Assay” value ([5]; 50° C., 2 weeks) was 98.32%, the “% Assay” value ([5]; HIL/UV, 2 weeks) was 98.44% and the “Physical stability (physical form)” value ([5]; by DSC, TGA and PXRD at 2 and 4 weeks, different temperature and humidity conditions) was “No change in the physical form was detected”. The “Physical or chemical degradation” value ([5]; tested temperature and humidity conditions) was “no significant physical or chemical degradation”, the “% Assay” value ([5]; −20° C., 1 Month, corrected for water and total volatiles) was 99.9% and the “% Assay” value ([6]; 5° C. (control), 2 weeks) was 98.32%. For the same compound, the “% Assay” value ([6]; 25° C./60% RH (closed), 2 weeks) was 98.26%, the “% Assay” value ([6]; 40° C./75% RH (open), 4 weeks) was 98.37% and the “% Assay” value ([6]; 50° C., 4 weeks) was 98.40%. The “% Assay” value ([6]; HIL/UV, 4 weeks) was 98.44% and the Chemical stability ([6]; storage conditions of Table 3, up to 4 weeks) was “no measure change in chemical stability”.

For `CS(=O)(=O)O.[2H]C([2H])([2H])NC(=O)c1nnc(NC(=O)C2CC2)cc1Nc1cccc(-c2ncn(C)n2)c1OC` [MSA salt], the “pH-effect Ratio” value [2] was 0.45, the “AUC pH 2-6.5 Mean” value [2] was 12045.08 and the “AUC pH 6-6.5 Mean” value [2] was 5368.76.
